Test results reported in patent publication US12037324B2, “Biarylmethyl heterocycles” (Université de Montréal, priority 2016, dated 2024).

Experiments:
Type in all cases: cell-based
[1] = target: T1, AGTR1 (Homo sapiens, UniProt P30556); assay: DiscoveRx β-arrestin2 recruitment assay (enzyme complementation, Pathunter CHO-K1 AGTR1 β-arrestin cell line); conditions: DiscoveRx β-arrestin2 recruitment; for DiscoveRx β-arrestin2 Ymax (%): maximal response
T1 construct: host or cells: Pathunter CHO-K1 AGTR1 β-arrestin cell line (CHO-K1)
T1 sequence (P30556 1-359): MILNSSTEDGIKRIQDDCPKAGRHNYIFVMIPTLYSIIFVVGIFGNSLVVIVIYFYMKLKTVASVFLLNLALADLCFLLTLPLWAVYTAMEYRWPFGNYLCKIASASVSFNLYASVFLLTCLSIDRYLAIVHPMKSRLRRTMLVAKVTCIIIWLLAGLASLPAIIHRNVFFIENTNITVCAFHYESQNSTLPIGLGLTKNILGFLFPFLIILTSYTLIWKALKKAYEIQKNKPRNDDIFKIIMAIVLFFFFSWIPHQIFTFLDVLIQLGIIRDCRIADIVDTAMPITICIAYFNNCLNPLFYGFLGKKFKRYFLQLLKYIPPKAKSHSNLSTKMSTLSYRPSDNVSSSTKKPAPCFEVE
How it was run: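 CHO-K1 cells expressing AGTR1 with β-arrestin2 enzyme-complementation reporter, plated 14-16 h ahead in 1% serum medium, then exposed to compounds for 90 min at 37° C. Chemiluminescence read after 1 h detection. EC50 (agonist) or IC50 (antagonist) from 4-parameter logistic fit; activity as percentage of All maximal effect.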

[2] = target: T2, hAT1R (Homo sapiens, UniProt P30556); assay: BRET Gq biosensor assay, agonist response, HEK293 cells; conditions: section of the 42nd table directly before the BRET P63 section
T2 sequence (P30556 1-359): T1 sequence (P30556 1-359)
How it was run: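 HEK293 cells co-transfected with signal-peptide-optimized hAT1R plus Gαq-Rluc, Gβ1 and GFP-Gγ1, assayed 48 h later in Tyrode's buffer pH 7.4. Coelenterazine (2 μM final) added, then compound; BRET2 (515/410 nm) read after 5 min at room temperature. EC50 by 4-parameter fit, normalized to unstimulated (0%) and maximal AngII (100%).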

[3] = target: T2, hAT1R; assay: BRET β-arrestin2 biosensor assay, higher receptor expression (hAT1R 5 ng/well), HEK293 cells; conditions: for EC50: High AT1R Expression

Structure (SMILES) | EC50 [1] [nM] | DiscoveRx β-arrestin2 Ymax (%) [1] [%] | EC50 [2] [nM] | BRET β-Arrestin2 High AT1R Expression Ymax (%) [3] [%] | EC50 [3] [nM]
CCCCc1ncc(C(=O)NC2COC2)n1Cc1ccc(-c2cc(-c3ccccc3)ccc2-c2nn[nH]n2)cc1 [Example 358] | 10.1 | 40.2 | 44.7 | 88.8 | 21.4
CCCCc1ncc(C(=O)NCc2cnccn2)n1Cc1ccc(-c2cc(-c3ccccc3)ccc2-c2nn[nH]n2)cc1 [Example 359] | 17.4 | 43.5 | 39.4 | 90.8 | 15.3
CCCCc1ncc(C(=O)NCC(C)(C)COC)n1Cc1ccc(-c2cc(-c3ccccc3)ccc2-c2nn[nH]n2)cc1 [Example 360] | 29.2 | 37.2 | > 100000 | 75.0 | 35.1
CCCCc1ncc(C(=O)NC(C)(C)COC)n1Cc1ccc(-c2cc(-c3ccccc3)ccc2-c2nn[nH]n2)cc1 [Example 361] | 97.8 | 29.3 | 296 | 61.3 | 128
CCCCc1ncc(C(=O)NC2CCCCCC2)n1Cc1ccc(-c2cc(-c3ccccc3)ccc2-c2nn[nH]n2)cc1 [Example 362] | 123 | 49.8 | 34.2 | 97.0 | 26.4
CCCCc1ncc(C(=O)NCc2cc(C(C)C)no2)n1Cc1ccc(-c2cc(-c3ccccc3)ccc2-c2nn[nH]n2)cc1 [Example 363] | 10.7 | 46.2 | 59.6 | 100.4 | 23.8
CCCCc1ncc(C(=O)NCC(F)F)n1Cc1ccc(-c2cc(-c3ccccc3)ccc2-c2nn[nH]n2)cc1 [Example 364] | 23.2 | 30.3 | 119 | 79.4 | 50.5
CCCCc1ncc(C(=O)NCC2CC2)n1Cc1ccc(-c2cc(-c3ccccc3)ccc2-c2nn[nH]n2)cc1 [Example 365] | 46.2 | 39.7 | 40.8 | 82.7 | 35.9
CCCCc1ncc(C(=O)NCCC(C)C)n1Cc1ccc(-c2cc(-c3ccccc3)ccc2-c2nn[nH]n2)cc1 [Example 366] | 11.1 | 37.0 | 42.9 | 78.7 | 27.4
CCCCc1ncc(C(=O)NCCOC(C)C)n1Cc1ccc(-c2cc(-c3ccccc3)ccc2-c2nn[nH]n2)cc1 [Example 367] | 5.7 | 35.9 | 59.1 | 63.3 | 17.6
CCCCc1ncc(C(=O)NCC(C)C)n1Cc1ccc(-c2cc(-c3ccccc3)ccc2-c2nn[nH]n2)cc1 [Example 368] | 59.8 | 39.1 | 96.1 | 82.6 | 32.5
CCCCc1ncc(C(=O)N[C@@H](CC)C2CC2)n1Cc1ccc(-c2cc(-c3ccccc3)ccc2-c2nn[nH]n2)cc1 [Example 369] | 174 | 30.9 | 173 | 73.8 | 73.3
CCCCc1ncc(C(=O)N2CCC2)n1Cc1ccc(-c2cc(-c3ccccc3)ccc2-c2nn[nH]n2)cc1 [Example 370] | 16.3 | 26.8 | 71.9 | 85.5 | 45.3
CCCCc1ncc(C(=O)NCc2ccccn2)n1Cc1ccc(-c2cc(-c3ccccc3)ccc2-c2nn[nH]n2)cc1 [Example 371] | 5.7 | 40.8 | > 1000 | 94.4 | 11
CCCCc1ncc(C(=O)NCCC)n1Cc1ccc(-c2cc(-c3ccccc3)ccc2-c2nn[nH]n2)cc1 [Example 372] | 58.8 | 41.7 | 73.8 | 78.9 | 44.8
CCCCc1ncc(C(=O)NCC(C)(C)C)n1Cc1ccc(-c2cc(-c3ccccc3)ccc2-c2nn[nH]n2)cc1 [Example 373] | 14.2 | 29.5 | 734 | 71.4 | 38.5
CCCCc1ncc(C(=O)NCCOC)n1Cc1ccc(-c2cc(-c3ccccc3)ccc2-c2nn[nH]n2)cc1 [Example 374] | 10.5 | 44.3 | 16.2 | 94.4 | 13.4
CCCCc1ncc(C(=O)Nc2ccncc2C)n1Cc1ccc(-c2cc(-c3ccccc3)ccc2-c2nn[nH]n2)cc1 [Example 375] | 89.7 | 35.8 | 273 | 55.7 | 89.4
CCCCc1ncc(C(=O)Nc2ccc(C)nn2)n1Cc1ccc(-c2cc(-c3ccccc3)ccc2-c2nn[nH]n2)cc1 [Example 376] | 18.5 | 22.1 | 123 | 44.2 | 45.5
CCCCc1ncc(C(=O)NC2CCCC2)n1Cc1ccc(-c2cc(-c3ccccc3)ccc2-c2nn[nH]n2)cc1 [Example 377] | 49.5 | 39.0 | 146 | 80.9 | 25.4
CCCCc1ncc(C(=O)N2CCCCC2)n1Cc1ccc(-c2cc(-c3ccccc3)ccc2-c2nn[nH]n2)cc1 [Example 378] | 107 | 15.7 | 688 | 26.3 | 238
CCCCc1ncc(C(=O)NCC)n1Cc1ccc(-c2cc(-c3ccccc3)ccc2-c2nn[nH]n2)cc1 [Example 379] | 21.2 | 30.2 | 106 | 72.7 | 56.3
CCCCc1ncc(C(=O)NC2CCC2)n1Cc1ccc(-c2cc(-c3ccccc3)ccc2-c2nn[nH]n2)cc1 [Example 380] | 59.2 | 43.1 | 104 | 76.0 | 35
CCCCc1nc(Cl)c(C(=O)N(C)C)n1Cc1ccc(-c2cc(-c3ccccc3)ccc2-c2nn[nH]n2)cc1 [Example 381, 1-((6′-(2H-tetrazol-5-yl)-[1,1′:3′,1″-terphenyl]-4-yl)methyl)-2-butyl-4-chloro-N,N-dimethyl-1H-imidazole-5-carboxamide] | 344 | 37.4 | 2110 | 73.9 | 828
CCCCc1ncc(C(=O)NC)n1Cc1ccc(-c2cc(-c3ccccc3)ccc2-c2nn[nH]n2)cc1 [Example 382] | 13.2 | 27.6 | > 100000 | 67.5 | 47.1
CCCCc1ncc(C(=O)N(C)C)n1Cc1ccc(-c2cc(-c3ccccc3)ccc2-c2nn[nH]n2)cc1 [Example 383, 1-((6′-(2H-tetrazol-5-yl)-[1,1′:3′,1″-terphenyl]-4-yl)methyl)-2-butyl-N,N-dimethyl-1H-imidazole-5-carboxamide] | 70.4 | 22.8 | 7740 | 66.3 | 309
CCCCc1nc(Cl)c(C(=O)O)n1Cc1ccc(-c2cc(-c3cncc(OC)c3)ccc2-c2nn[nH]n2)cc1 [Example 385] | 31.4 | 35.4 | 1110 | 87.0 | 57.1
CCCCc1nc(Cl)c(C(=O)O)n1Cc1ccc(-c2cc(-c3cnn(C4CC4)c3)ccc2-c2nn[nH]n2)cc1 [Example 386] | 8.4 | 27.3 | 59100 | 66.7 | 45.2
CCCCc1nc(Cl)c(C(=O)O)n1Cc1ccc(-c2cc(-c3cnn(C(F)F)c3)ccc2-c2nn[nH]n2)cc1 [Example 387] | 16.6 | 32.8 | 3420 | 81.9 | 18.2
CCCCc1nc(Cl)c(C(=O)O)n1Cc1ccc(-c2cc(-c3cnn(C)c3)ccc2-c2nn[nH]n2)cc1 [Example 389] | 91.8 | 26.7 | 2020 | 35.3 | 189
